From US20260250257A1, “ANTIBACTERIAL AND SYNERGISTIC ACTIVE COMPOUND AND USE THEREOF” (EAST CHINA UNIVERSITY OF SCIENCE AND TECHNOLOGY, priority 2023, published 2026)
≈ marks a conversion by molar mass, not a printed value.

These molecules were tested on ATCC25922 strain (Escherichia coli) (assay: Broth microdilution, antibacterial activity of the compound used alone). Details: not given.
Format: cell-based
Text: (§1) The broth microdilution method was used to test the antibacterial effects of the compounds of the present invention against various Gram-negative bacterial strains when used alone.

Row | Structure (SMILES) | Antibacterial activity of the compound of Formula I, ATCC25922 [µg/mL]
1 | Cc1sc(N=C(N)N)nc1-c1cccc2ccoc12 [Compound I-70] | 256
2 | CCc1oc(N=C2NCCCN2)nc1-c1c(SC)cc2cc(Cl)cc(Cl)n12 [Compound I-197] | 256
3 | CC(C)c1ccccc1-c1coc(N=C(N)N)n1 [Compound I-15] | 256
4 | Cc1sc(N=C(N)N)nc1-c1ccc(Cl)cc1Oc1ccc(Cl)cc1Cl [Compound I-89] | 256
5 | NC(N)=Nc1nc(-c2c(Br)cc(Br)cc2Br)c(I)o1 [Compound I-53] | 256

Same assay, conditions: read-out: Antibacterial activity of the compound of Formula I, ATCC25922

Row | MIC [mg/L] | Structure (SMILES)
6 | 256 (≈ 654 µM) | NC(N)=Nc1nc(-c2ccc(OCc3ccccc3)c3nc(O)ccc23)cs1 [Compound I-114]
7 | 256 (≈ 784 µM) | NC(N)=Nc1nc(-c2ccc(Sc3ccccc3)cc2)cs1 [Compound I-107]
8 | 256 (≈ 676 µM) | Cc1ccc(Oc2ccccc2-c2csc(NC3=NCCCN3)n2)c(C)c1 [Compound I-143]
9 | 256 (≈ 587 µM) | NC(N)=Nc1nc(-c2ccccc2Oc2ccccc2I)cs1 [Compound I-86]

These molecules were tested on ATCC9027 strain (Pseudomonas aeruginosa) in the same assay as above. Details: not given.
Format: cell-based
Text: as §1

Row | Structure (SMILES) | Antibacterial activity of the compound of Formula I, ATCC9027 [µg/mL]
10 | Cc1sc(N=C(N)N)nc1-c1cccc2ccoc12 [Compound I-70] | 256
11 | CCc1oc(N=C2NCCCN2)nc1-c1c(SC)cc2cc(Cl)cc(Cl)n12 [Compound I-197] | 256
12 | CC(C)c1ccccc1-c1coc(N=C(N)N)n1 [Compound I-15] | 256
13 | Cc1sc(N=C(N)N)nc1-c1ccc(Cl)cc1Oc1ccc(Cl)cc1Cl [Compound I-89] | 256
14 | NC(N)=Nc1nc(-c2c(Br)cc(Br)cc2Br)c(I)o1 [Compound I-53] | 256

Same assay, conditions: read-out: Antibacterial activity of the compound of Formula I, ATCC9027

Row | MIC [mg/L] | Structure (SMILES)
15 | 256 (≈ 654 µM) | NC(N)=Nc1nc(-c2ccc(OCc3ccccc3)c3nc(O)ccc23)cs1 [Compound I-114]
16 | 256 (≈ 784 µM) | NC(N)=Nc1nc(-c2ccc(Sc3ccccc3)cc2)cs1 [Compound I-107]
17 | 256 (≈ 676 µM) | Cc1ccc(Oc2ccccc2-c2csc(NC3=NCCCN3)n2)c(C)c1 [Compound I-143]
18 | 256 (≈ 587 µM) | NC(N)=Nc1nc(-c2ccccc2Oc2ccccc2I)cs1 [Compound I-86]

Each molecule was assayed on ATCC19606 strain (Acinetobacter baumannii) in the same assay as above. Details: not given.
Format: cell-based
Text: as §1

Row | Structure (SMILES) | Antibacterial activity of the compound of Formula I, ATCC19606 [µg/mL]
19 | Cc1sc(N=C(N)N)nc1-c1cccc2ccoc12 [Compound I-70] | 256
20 | CCc1oc(N=C2NCCCN2)nc1-c1c(SC)cc2cc(Cl)cc(Cl)n12 [Compound I-197] | 256
21 | CC(C)c1ccccc1-c1coc(N=C(N)N)n1 [Compound I-15] | 256
22 | Cc1sc(N=C(N)N)nc1-c1ccc(Cl)cc1Oc1ccc(Cl)cc1Cl [Compound I-89] | 256
23 | NC(N)=Nc1nc(-c2c(Br)cc(Br)cc2Br)c(I)o1 [Compound I-53] | 256

Same assay, conditions: read-out: Antibacterial activity of the compound of Formula I, ATCC19606

Row | MIC [mg/L] | Structure (SMILES)
24 | 256 (≈ 654 µM) | NC(N)=Nc1nc(-c2ccc(OCc3ccccc3)c3nc(O)ccc23)cs1 [Compound I-114]
25 | 256 (≈ 784 µM) | NC(N)=Nc1nc(-c2ccc(Sc3ccccc3)cc2)cs1 [Compound I-107]
26 | 256 (≈ 676 µM) | Cc1ccc(Oc2ccccc2-c2csc(NC3=NCCCN3)n2)c(C)c1 [Compound I-143]
27 | 256 (≈ 587 µM) | NC(N)=Nc1nc(-c2ccccc2Oc2ccccc2I)cs1 [Compound I-86]

Each molecule was assayed on ATCC13883 strain (Klebsiella pneumoniae) in the same assay as above. Details: not given.
Format: cell-based
Text: as §1

Row | Structure (SMILES) | Antibacterial activity of the compound of Formula I, ATCC13883 [µg/mL]
28 | Cc1sc(N=C(N)N)nc1-c1cccc2ccoc12 [Compound I-70] | 256
29 | CCc1oc(N=C2NCCCN2)nc1-c1c(SC)cc2cc(Cl)cc(Cl)n12 [Compound I-197] | 256
30 | CC(C)c1ccccc1-c1coc(N=C(N)N)n1 [Compound I-15] | 256
31 | Cc1sc(N=C(N)N)nc1-c1ccc(Cl)cc1Oc1ccc(Cl)cc1Cl [Compound I-89] | 256
32 | NC(N)=Nc1nc(-c2c(Br)cc(Br)cc2Br)c(I)o1 [Compound I-53] | 256

Same assay, conditions: read-out: Antibacterial activity of the compound of Formula I, ATCC13883

Row | MIC [mg/L] | Structure (SMILES)
33 | 256 (≈ 654 µM) | NC(N)=Nc1nc(-c2ccc(OCc3ccccc3)c3nc(O)ccc23)cs1 [Compound I-114]
34 | 256 (≈ 784 µM) | NC(N)=Nc1nc(-c2ccc(Sc3ccccc3)cc2)cs1 [Compound I-107]
35 | 256 (≈ 676 µM) | Cc1ccc(Oc2ccccc2-c2csc(NC3=NCCCN3)n2)c(C)c1 [Compound I-143]
36 | 256 (≈ 587 µM) | NC(N)=Nc1nc(-c2ccccc2Oc2ccccc2I)cs1 [Compound I-86]

These molecules were tested on ATCC25922 strain (Escherichia coli) (assay: Checkerboard antibacterial synergistic activity test with polymyxin E (FIC)). Details: combined with polymyxin E.
Format: cell-based
Parameters: key: FIC≤0.5 synergy; 0.5–1 additive; 1–2 indifferent; ≥2 antagonism
Protocol: (§2) Polymyxin E was diluted in sterile MH broth medium to concentrations of 16, 8, 4, 2, 1, 0.5, 0.25, 0.125, 0.0625, 0.031, and 0.015 μg/ml, and the drug to be tested was diluted to concentrations of 256, 128, 64, 32, 16, 8, and 4 μg/ml. According to the checkerboard method, combinations of the drug to be tested and polymyxin at different concentrations in ascending order were placed into a 96-well plate, and corresponding blank control groups were set up. 50 μl of the drug solution was added to each well, then 100 μl of bacterial liquid was added, and incubated in a 37° C. incubator for 16 hours. […] Calculation and judgment criteria:
(§3) Fractional Inhibitory Concentration (FIC) is calculated as follows: […]
(§4) Judgment criteria: FIC≤0.5: synergistic effect; 0.5<FIC<1: additive effect; 1<FIC<2: indifferent effect; FIC≥2: antagonistic effect.
(§5) In the table: ATCC19606 strain is Acinetobacter baumannii, ATCC25922 strain is Escherichia coli, ATCC13883 strain is Klebsiella pneumoniae, ATCC9027 strain is Pseudomonas aeruginosa. All four strains were purchased from ATCC.

Row | Structure (SMILES) | Synergistic activity (FIC value) ATCC25922
37 | NC(N)=Nc1nc(-c2ccc(OCc3ccccc3)c3nc(O)ccc23)cs1 [Compound I-114] | 0.5
38 | NC(N)=Nc1nc(-c2ccc(Sc3ccccc3)cc2)cs1 [Compound I-107] | 0.53
39 | Cc1sc(N=C(N)N)nc1-c1cccc2ccoc12 [Compound I-70] | 1.25
40 | Cc1ccc(Oc2ccccc2-c2csc(NC3=NCCCN3)n2)c(C)c1 [Compound I-143] | 0.04
41 | CCc1oc(N=C2NCCCN2)nc1-c1c(SC)cc2cc(Cl)cc(Cl)n12 [Compound I-197] | 0.27
42 | CC(C)c1ccccc1-c1coc(N=C(N)N)n1 [Compound I-15] | 0.5
43 | Cc1sc(N=C(N)N)nc1-c1ccc(Cl)cc1Oc1ccc(Cl)cc1Cl [Compound I-89] | 0.15
44 | NC(N)=Nc1nc(-c2c(Br)cc(Br)cc2Br)c(I)o1 [Compound I-53] | 0.5
45 | NC(N)=Nc1nc(-c2ccccc2Oc2ccccc2I)cs1 [Compound I-86] | 0.04

Each molecule was assayed on ATCC9027 strain (Pseudomonas aeruginosa) in the same assay as above. Details: combined with polymyxin E.
Format: cell-based
Parameters: key: FIC≤0.5 synergy; 0.5–1 additive; 1–2 indifferent; ≥2 antagonism
Protocol: as §2, §3, §4, §5

Row | Structure (SMILES) | Synergistic activity (FIC value) ATCC9027
46 | NC(N)=Nc1nc(-c2ccc(OCc3ccccc3)c3nc(O)ccc23)cs1 [Compound I-114] | 1.25
47 | NC(N)=Nc1nc(-c2ccc(Sc3ccccc3)cc2)cs1 [Compound I-107] | 1.25
48 | Cc1sc(N=C(N)N)nc1-c1cccc2ccoc12 [Compound I-70] | 1.25
49 | Cc1ccc(Oc2ccccc2-c2csc(NC3=NCCCN3)n2)c(C)c1 [Compound I-143] | 0.04
50 | CCc1oc(N=C2NCCCN2)nc1-c1c(SC)cc2cc(Cl)cc(Cl)n12 [Compound I-197] | 0.52
51 | CC(C)c1ccccc1-c1coc(N=C(N)N)n1 [Compound I-15] | 1.25
52 | Cc1sc(N=C(N)N)nc1-c1ccc(Cl)cc1Oc1ccc(Cl)cc1Cl [Compound I-89] | 0.18
53 | NC(N)=Nc1nc(-c2c(Br)cc(Br)cc2Br)c(I)o1 [Compound I-53] | 0.63
54 | NC(N)=Nc1nc(-c2ccccc2Oc2ccccc2I)cs1 [Compound I-86] | 0.04

Each molecule was assayed on ATCC19606 strain (Acinetobacter baumannii) in the same assay as above. Details: combined with polymyxin E.
Format: cell-based
Parameters: key: FIC≤0.5 synergy; 0.5–1 additive; 1–2 indifferent; ≥2 antagonism
Protocol: as §2, §3, §4, §5

Row | Structure (SMILES) | Synergistic activity (FIC value) ATCC19606
55 | NC(N)=Nc1nc(-c2ccc(OCc3ccccc3)c3nc(O)ccc23)cs1 [Compound I-114] | 0.27
56 | NC(N)=Nc1nc(-c2ccc(Sc3ccccc3)cc2)cs1 [Compound I-107] | 1.25
57 | Cc1sc(N=C(N)N)nc1-c1cccc2ccoc12 [Compound I-70] | 0.26
58 | Cc1ccc(Oc2ccccc2-c2csc(NC3=NCCCN3)n2)c(C)c1 [Compound I-143] | 0.38
59 | CCc1oc(N=C2NCCCN2)nc1-c1c(SC)cc2cc(Cl)cc(Cl)n12 [Compound I-197] | 0.31
60 | CC(C)c1ccccc1-c1coc(N=C(N)N)n1 [Compound I-15] | 1.25
61 | Cc1sc(N=C(N)N)nc1-c1ccc(Cl)cc1Oc1ccc(Cl)cc1Cl [Compound I-89] | 0.02
62 | NC(N)=Nc1nc(-c2c(Br)cc(Br)cc2Br)c(I)o1 [Compound I-53] | 0.28
63 | NC(N)=Nc1nc(-c2ccccc2Oc2ccccc2I)cs1 [Compound I-86] | 0.38

Each molecule was assayed on ATCC13883 strain (Klebsiella pneumoniae) in the same assay as above. Details: combined with polymyxin E.
Format: cell-based
Parameters: key: FIC≤0.5 synergy; 0.5–1 additive; 1–2 indifferent; ≥2 antagonism
Protocol: as §2, §3, §4, §5

Row | Structure (SMILES) | Synergistic activity (FIC value) ATCC13883
64 | NC(N)=Nc1nc(-c2ccc(OCc3ccccc3)c3nc(O)ccc23)cs1 [Compound I-114] | 1.25
65 | NC(N)=Nc1nc(-c2ccc(Sc3ccccc3)cc2)cs1 [Compound I-107] | 1.25
66 | Cc1sc(N=C(N)N)nc1-c1cccc2ccoc12 [Compound I-70] | 1.25
67 | Cc1ccc(Oc2ccccc2-c2csc(NC3=NCCCN3)n2)c(C)c1 [Compound I-143] | 0.19
68 | CCc1oc(N=C2NCCCN2)nc1-c1c(SC)cc2cc(Cl)cc(Cl)n12 [Compound I-197] | 0.25
69 | CC(C)c1ccccc1-c1coc(N=C(N)N)n1 [Compound I-15] | 1.25
70 | Cc1sc(N=C(N)N)nc1-c1ccc(Cl)cc1Oc1ccc(Cl)cc1Cl [Compound I-89] | 0.13
71 | NC(N)=Nc1nc(-c2c(Br)cc(Br)cc2Br)c(I)o1 [Compound I-53] | 0.25
72 | NC(N)=Nc1nc(-c2ccccc2Oc2ccccc2I)cs1 [Compound I-86] | 0.19
